Assay results as given in ChEMBL document CHEMBL5500364, “Design, synthesis, and biological evaluation of some 2-(3-oxo-5,6-diphenyl-1,2,4-triazin-2(3H)-yl)-N-phenylacetamide hybrids as MTDLs for Alzheimer's disease therapy” (Eur J Med Chem, 2024).
Active and inactive are the calls of the source. The calls are words filed in the database; no cut-off is given here.

Assays:
[1] = Cmax in male Wistar rat at 10 mg/kg, po measured after 72 hrs by HPLC analysis; type: ADME, organism-based; details: in vivo
Drosophila = assay: Neuroprotective activity against ey-GAL4>UAS-amyloid beta (1 to 42) induced cellular toxicity in Oregon R-positive Drosophila model assessed as rescue of ommatidial patterns in eye at 10 to 20 uM by scanning electron microscopic imaging analysis; type: functional, organism-based; details: dose 10-20 µM
Rattus norvegicus = assay: Reversal of amyloid beta (1 to 42 residues) induced cognitive impairment in Wistar rat assessed as increase in platform crossings at 10 mg/kg, po pretreated with amyloid beta for 7 days followed by compound administration for 9 days and measured after 1 days by Morris water maze test; type: functional, organism-based; details: time 10.0 day
[2] = Total AUC in male Wistar rat at 10 mg/kg, po measured after 72 hrs by HPLC analysis; type: ADME, organism-based; details: in vivo
[3] = target: Amyloid-beta precursor protein (Homo sapiens) (UniProt P05067); assay: Inhibition of amyloid beta (1 to 42) (unknown origin) aggregation assessed as reduction in size of amyloid-beta aggregates measured within 48 hrs by SEM imaging analysis
Chain of Amyloid-beta precursor protein (Homo sapiens) (P05067 whole entry): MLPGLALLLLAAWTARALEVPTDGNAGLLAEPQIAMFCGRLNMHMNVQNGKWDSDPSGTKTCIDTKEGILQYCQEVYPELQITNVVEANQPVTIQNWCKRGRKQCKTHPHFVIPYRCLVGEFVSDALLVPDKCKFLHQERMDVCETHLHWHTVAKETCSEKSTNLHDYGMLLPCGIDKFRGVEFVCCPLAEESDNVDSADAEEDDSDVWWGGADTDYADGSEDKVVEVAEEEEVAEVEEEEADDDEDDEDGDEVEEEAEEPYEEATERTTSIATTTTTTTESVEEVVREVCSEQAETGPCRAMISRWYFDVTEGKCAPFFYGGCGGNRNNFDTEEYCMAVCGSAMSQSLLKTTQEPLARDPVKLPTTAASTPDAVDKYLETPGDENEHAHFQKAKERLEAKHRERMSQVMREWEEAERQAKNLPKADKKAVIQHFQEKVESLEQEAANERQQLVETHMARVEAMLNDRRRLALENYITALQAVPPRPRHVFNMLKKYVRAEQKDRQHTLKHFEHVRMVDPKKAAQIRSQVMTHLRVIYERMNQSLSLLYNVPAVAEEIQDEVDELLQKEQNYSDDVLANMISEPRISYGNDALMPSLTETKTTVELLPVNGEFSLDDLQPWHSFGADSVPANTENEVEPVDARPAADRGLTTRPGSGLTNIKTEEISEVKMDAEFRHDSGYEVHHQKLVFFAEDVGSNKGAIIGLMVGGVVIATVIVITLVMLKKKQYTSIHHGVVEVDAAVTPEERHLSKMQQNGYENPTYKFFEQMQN

Question: Which results are given for COc1cc(NC(=O)Cn2nc(-c3ccccc3)c(-c3ccccc3)nc2=O)cc(OC)c1?
Answer: Cmax [1]: 355 ng/mL; Activity (Drosophila): Active; Activity (Rattus norvegicus): inactive; AUC at 72 h [2]: 1740 ng·h/mL; inhibition [3]: Active
